# In patent US4728736A, “Carbocyclic analogs of purine ribofuranosides” (priority 1984, dated 1988):
# How the values were obtained:
# [1] = tested on: herpes simplex virus, type 1 (strain HF); test: Antiviral activity (virus rating); […]; format: cell-based; conditions: H.Ep. 2 cells; for EC50: Human alphaherpesvirus 1, HEp-2, strain HF, read-out: MIC50, Herpes Simplex Type 1; for Virus Rating (VR), Herpes Simplex Type 1: VR 0.5-0.9 marginal to moderate, VR >= 1 definite activity
# [2] = tested on: herpes simplex virus, type 1 (strain 377); test: Antiviral activity (virus rating); […]; format: cell-based; conditions: strain 377, Vero cells; for EC50: Human alphaherpesvirus 1, 50% inhibition of virus-induced cytopathogenic effects, read-out: MIC50, Herpes Simplex Type 1; for Virus Rating (VR), Herpes Simplex Type 1: VR 0.5-0.9 marginal to moderate, VR >= 1 definite activity
# [3] = tested on: herpes simplex virus, type 1, and vaccinia virus; format: cell-based, type 1; vaccinia virus; conditions: cell culture
# [4] = tested on: vaccinia virus (Lederle Chorioallantoic strain); test: microbe, parasite or virus in culture; format: cell-based; conditions: for Virus Rating (VR), Vaccinia Virus: Lederle Chorioallantoic strain, H.Ep. 2 cells, VR 0.5-0.9 marginal to moderate, VR >= 1 definite activity; for EC50: Orthopoxvirus vaccinia, HEp-2, read-out: MIC50, Vaccinia Virus
# [5] = 50% inhibition of virus-induced cytopathogenic effects
SMILES,"EC50 [1, 5] [µg/mL]","Virus Rating (VR), Herpes Simplex Type 1 ([1]; strain HF)","MIC50, Herpes Simplex Type 1 ([1]; strain HF, 50% inhibition of virus-induced cytopathogenic effects) [µg/mL]",EC50 [2] [µg/mL],"Virus Rating (VR), Herpes Simplex Type 1 [2]",antiviral activity (in words) [3],inhibiting replication of vaccinia virus (in words) [4],"Virus Rating (VR), Vaccinia Virus [4]",EC50 [4] [µg/mL]
"CNc1nc(N)nc2c1ncn2[C@@H]1C[C@H](CO)[C@@H](O)[C@H]1O (relative stereo) [Example 3, (1α,2α,3β,5β)-3-[2-Amino-6-(methylamino)-9H-purin-9-yl]-5-(hydroxymethyl)-1,2-cyclopentanediol]",320,1.3,–,–,–,–,–,–,–
"Nc1nc(N)c2ncn([C@@H]3C[C@H](CO)[C@@H](O)[C@H]3O)c2n1 (relative stereo) [Example 2, (1α,2α,3β,5β)-3-(2,6-Diamino-9H-purin-9-yl)-5-(hydroxymethyl)-1,2-cyclopentanediol]",0.32,4.6,0.3,197,2.2,very high activity,highly active,3.8,2.3
"Nc1nc2c(nnn2[C@@H]2C[C@H](CO)[C@@H](O)[C@H]2O)c(=O)[nH]1 (relative stereo) [Formula IV, Y = O, carbocyclic analog of 8-azaguanosine]",–,–,–,58,2.2,–,–,–,–
"Nc1ncnc2c1ncn2[C@@H]1O[C@H](CO)[C@@H](O)[C@@H]1O [Ara-A, reference compound]",2.5 to 10,2.0-2.2,–,–,–,–,–,–,–
"Nc1nc(Cl)c2nnn([C@@H]3C[C@H](CO)[C@@H](O)[C@H]3O)c2n1 (relative stereo) [Formula III, X = Cl, carbocyclic analog of 2-amino-6-chloro-8-azapurine ribofuranoside]",81,0.9,–,–,–,–,–,0.6,–
"Nc1nc(Cl)c2ncn([C@@H]3C[C@H](CO)[C@@H](O)[C@H]3O)c2n1 (relative stereo) [Example 1, (1α,2α,3β,5β)-3-(2-Amino-6-chloro-9HH-purin-9-yl)-5-(hydroxymethyl)-1,2-cyclopentanediol]",10,1.7,–,–,–,–,–,1.2,20
"Nc1nc(N)c2nnn([C@@H]3C[C@H](CO)[C@@H](O)[C@H]3O)c2n1 (relative stereo) [Example 6, (1α,2α,3β,5β)-3-(5,7-Diamino-3H-1,2,3-triazolo[4,5-d]pyrimidin-3-yl)-5-(hydroxymethyl)-1,2-cyclopentanediol]",100,1.4,–,–,0.6,–,–,–,–
